System: E. coli
Assay: Full scale trial of peracetic acid disinfection at a wastewater treatment plant (E. coli by IDEXX Colisure method)
Parameters: species or system Escherichia coli
Protocol: A full scale trial of peracetic acid (15% PAA:23% hydrogen peroxide) disinfection was performed at a wastewater treatment plant in Tennessee, USA. The wastewater contained a high level of colored, aromatic molecules discharged from industrial sources involved in the processing of cotton seeds and other sources of lignin and bio-based polymers. The water quality, and as a result the peracetic acid (PAA) demand, was heavily dependent upon the cyclic discharge rates from these industrial sources. Thus, the PAA efficacy in reducing bacterial concentrations within the wastewater was not only dependent upon the overall flow rate of the WWTP, but also upon the time-dependent water quality. The time-dependent water quality demand on PAA at the treatment plant required the inclusion of a PAA feed-forward dosing scheme to insure that the proper dosing of PAA needed to achieve the target microbial reduction was maintained.
Initial testing consisted of collecting continuous, on-line data for four wastewater quality parameters: color, chemical oxygen demand (COD), oxidation/reduction potential (ORP) and UV transmittance (UVT) at 254 nm. Peracetic acid was measured in situ via the Prominent Dulcotest CTE sensor. The sensor was a membrane-capped amperometric, two electrode sensor for the measurement of PAA in aqueous solution. […] PAA contained in the sample water diffused through the membrane, causing a potential difference between electrodes. The primary signal was converted by the amplifier electronics of the sensor into a 4-20 mA, temperature corrected, output signal, which was optimally controlled via the DULCOMETER diaLog DACa controller. Wastewater color was measured on-line utilizing a ChemScan UV-3151 Series Analyzer with a flow-through sensor. The analyzer drew a sample of wastewater from the untreated side of the disinfection channel, representative of the influent wastewater, to the main unit, which was located in the control house. Wastewater COD and % UVT (% ultraviolet transmittance at 254 nm) were measured on-line using a submersible YSI CarboVis model 701 unit. E. coli analysis were performed by a third-party laboratory, using the IDEXX Colisure method.
The data for each quality parameter then was correlated to PAA demand, accounting for wastewater flow rate. E. coli concentrations were measured at the inflow to the disinfection channel, at the mid-point of the disinfection channel and at the outflow.
Subsequent testing was performed with wastewater color as the water quality parameter for feed-forward control of the PAA dose (PAAdemand), coupled with flow pacing.
At least three cycles of water quality (minimum to maximum wastewater color) were tested with flow rates ranging from 50 to 130 MGD. Sixty three E. coli concentrations were measured during this period. […]

[1] = effluent after PAA dosing with color feed-forward control plus flow pacing, flow 50 to 130 MGD, power-outage measurement eliminated

Structure (SMILES): CC(=O)OO [PAA, peracetic acid]
- PAAset point to achieve the desired E. coli reduction (at demand neutral performance, this wastewater): 7 ppm
- E. coli concentration (all but one of sixty three measurements) (below the permitted daily maximum, the exception occurred in a power outage with no PAA dosed): < 487 cfu/100 mL
- E. coli arithmetic mean concentration [1]: 18 cfu/100 mL
- E. coli geomean concentration [1]: 12 cfu/100 mL

Source: patent US20170313604A1, “Wastewater Treatment Method” (PeroxyChem LLC, priority 2016, published 2017)
